What was measured:
[1] = cited from earlier work; for pKa: H2O, 25° C., Lange's Handbook of Chemistry
[2] = Hydrolysis of kinetically formed trialkylphosphate in the presence of water (1H NMR); type: physicochemical
Text: (§1) 3.3 Kinetic favorability of phosphotriester formation over hydrolysis in the presence of water. The reaction of quinone methide 7 and two equivalents of dibenzylphosphoric acid in the presence of excess water (˜200 equivalents for a homogeneous solution) afforded only trialkylphosphate 8 as the product in the equilibrium by 1H NMR analysis. […] Trialkylphosphate 8 is the kinetic product. A similar amount of 8 is produced in the presence of a much higher concentration of water (3,000 equivalents forming a bilayer) at ambient temperature after 30 minutes. […] Hydrolysis to benzyl alcohol appears to be the thermodynamic product^39. Similar results of quinone methides reacting with amino acid derivatives under aqueous conditions have been reported by other researchers^43.
as §1, with “(3)” for “3.3”, “^1H” for “1H”, “product. […]” for “product^39. Similar results of quinone methides reacting with amino acid derivatives under aqueous conditions have been reported by other researchers^43.”

Row | SMILES | pKa [1] | reported pKa values for various substituted guanidines [1] | further results
1 | Nc1cccc(O)c1 [3-aminophenol] | 9.83 | – | –
2 | CCN(C)CC [Et2MeN] | 10.4 | – | –
3 | N=C(N)N [guanidine] | 14.38 | – | –
4 | CNC(=N)N [methylguanidine] | 14.1 | 14.1 | –
5 | N=C(N)Nc1ccccc1 [phenylguanidine] | – | 10.8 | –
6 | Cc1cc(COP(=O)(OCc2ccccc2)OCc2ccccc2)cc(C)c1O [trialkylphosphate 8] | – | – | hydrolysis to benzyl alcohol ([2]; 3,000 equivalents water forming a bilayer, ambient temperature, after 18 hours): complete conversion to benzyl alcohol; hydrolysis to benzyl alcohol ([2]; excess water (~200 equivalents, homogeneous solution), 18 hours at ambient temperature): Minor amounts of the benzyl alcohol hydrolysis product

Reference: patent US6657052B1, “Biomolecular labeling” (University of Arkansas, priority 1997, dated 2003)
